Measurements: patent publication US20220281848A1, “PYRAZOLE-SUBSTITUTED PYRROLIDINONES AS HERBICIDES” (FMC Corporation, priority 2019, published 2022)

Key:
Format in all cases: in vivo
Conditions in all cases: after 13 d
[1] = system: giant foxtail (Setaria faberi, SETFA); test: Test A pre-emergence, giant foxtail
Experimental: (§1) Seeds of corn (Zea mays, ZEAMX), giant foxtail (Setaria faberi, SETFA), barnyardgrass (Echinochloa crus-galli, ECHCG), ivy-leaved morning glory (Ipomoea hederacea, IPOHE), redroot pigweed (Amaranthus retroflexus, AMARE) and velvetleaf (Abutilon theophrasti, ABUTH) were sown in standard soil in pots. After cultivation for one day under controlled conditions in a glasshouse (at 24/16° C., day/night; 14 h light; 65% humidity), the plants were sprayed with an aqueous spray solution derived from the formulation of the technical active ingredient in acetone/water (50:50) solution containing 0.5% Tween 20 (polyoxyethylene sorbitan monolaurate, CAS RN 9005-64-5) to give a final dose of 15.625, 62.5 or 250 g/ha of test compound.
(§2) The test plants were then grown under controlled conditions in a glasshouse (at 24/16° C., day/night; 14 h light; 65% humidity) and watered twice daily. After 13 d the test was evaluated (100=total damage to plant; 0=no damage to plant).

[2] = system: redroot pigweed (Amaranthus retroflexus, AMARE); test: Test A pre-emergence, redroot pigweed
Experimental: as §1, §2

[3] = system: ivy-leaved morning glory (Ipomoea hederacea, IPOHE); test: Test A post-emergence, ivy-leaved morning glory
Experimental: as §1, with “IPOHE)),” for “IPOHE),”, “8 d” for “one day”
(§3) The test plants were then grown on under controlled conditions in a glasshouse (at 24/16° C., day/night; 14 h light; 65% humidity) and watered twice daily. After 13 d the test was evaluated (100=total damage to plant; 0=no damage to plant).

[4] = system: barnyardgrass (Echinochloa crus-galli, ECHCG); test: Test A pre-emergence, barnyardgrass
Experimental: as §1, §2

[5] = system: velvetleaf (Abutilon theophrasti, ABUTH); test: Test A pre-emergence, velvetleaf
Experimental: as §1, §2

[6] = system: giant foxtail (Setaria faberi, SETFA); test: Test A post-emergence, giant foxtail
Experimental: as §1, with “IPOHE)),” for “IPOHE),”, “8 d” for “one day”
as §3

[7] = system: ivy-leaved morning glory (Ipomoea hederacea, IPOHE); test: Test A pre-emergence, ivy-leaved morning glory
Experimental: as §1, §2

corn (Zea mays, ZEAMX) [8] = test: Test A post-emergence, corn
Experimental: as §1, with “IPOHE)),” for “IPOHE),”, “8 d” for “one day”
as §3

[9] = system: redroot pigweed (Amaranthus retroflexus, AMARE); test: Test A post-emergence, redroot pigweed
Experimental: as §1, with “IPOHE)),” for “IPOHE),”, “8 d” for “one day”
as §3

[10] = system: velvetleaf (Abutilon theophrasti, ABUTH); test: Test A post-emergence, velvetleaf
Experimental: as §1, with “IPOHE)),” for “IPOHE),”, “8 d” for “one day”
as §3

[11] = system: barnyardgrass (Echinochloa crus-galli, ECHCG); test: Test A post-emergence, barnyardgrass
Experimental: as §1, with “IPOHE)),” for “IPOHE),”, “8 d” for “one day”
as §3

corn (Zea mays, ZEAMX) [12] = test: Test A pre-emergence, corn
Experimental: as §1, §2

Compound | damage to plant (100=total damage; 0=no damage) SETFA ([1]; Pre-Emergence at 15.625 g/ha) | damage to plant (100=total damage; 0=no damage) SETFA ([1]; Pre-Emergence at 62.5 g/ha) | damage to plant (100=total damage; 0=no damage) SETFA ([1]; Pre-Emergence at 250 g/ha) | damage to plant (100=total damage; 0=no damage) AMARE ([2]; Pre-Emergence at 15.625 g/ha) | damage to plant (100=total damage; 0=no damage) AMARE ([2]; Pre-Emergence at 62.5 g/ha) | damage to plant (100=total damage; 0=no damage) AMARE ([2]; Pre-Emergence at 250 g/ha) | damage to plant (100=total damage; 0=no damage) IPOHE ([3]; Post-Emergence at 15.625 g/ha) | damage to plant (100=total damage; 0=no damage) IPOHE ([3]; Post-Emergence at 62.5 g/ha) | damage to plant (100=total damage; 0=no damage) IPOHE ([3]; Post-Emergence at 250 g/ha) | damage to plant (100=total damage; 0=no damage) ECHCG ([4]; Pre-Emergence at 15.625 g/ha) | damage to plant (100=total damage; 0=no damage) ECHCG ([4]; Pre-Emergence at 62.5 g/ha) | damage to plant (100=total damage; 0=no damage) ECHCG ([4]; Pre-Emergence at 250 g/ha) | damage to plant (100=total damage; 0=no damage) ABUTH ([5]; Pre-Emergence at 15.625 g/ha) | damage to plant (100=total damage; 0=no damage) ABUTH ([5]; Pre-Emergence at 62.5 g/ha) | damage to plant (100=total damage; 0=no damage) ABUTH ([5]; Pre-Emergence at 250 g/ha) | damage to plant (100=total damage; 0=no damage) SETFA ([6]; Post-Emergence at 15.625 g/ha) | damage to plant (100=total damage; 0=no damage) SETFA ([6]; Post-Emergence at 62.5 g/ha) | damage to plant (100=total damage; 0=no damage) SETFA ([6]; Post-Emergence at 250 g/ha) | damage to plant (100=total damage; 0=no damage) IPOHE ([7]; Pre-Emergence at 15.625 g/ha) | damage to plant (100=total damage; 0=no damage) IPOHE ([7]; Pre-Emergence at 62.5 g/ha) | other results
CN1CC(c2cc(Cl)n(C)n2)C(C(=O)Nc2cccc(F)c2F)C1=O (racemic) [Compound 27] | 60 | 80 | 90 | 0 | 0 | 0 | 10 | 10 | 20 | 70 | 90 | 90 | 0 | 0 | 0 | 10 | 50 | 70 | 0 | 0 | damage to plant (100=total damage; 0=no damage) IPOHE ([7]; Pre-Emergence at 250 g/ha): 10; damage to plant (100=total damage; 0=no damage) ZEAMX (corn (Zea mays, ZEAMX) [8]; Post-Emergence at 15.625 g/ha): 0; damage to plant (100=total damage; 0=no damage) ZEAMX (corn (Zea mays, ZEAMX) [8]; Post-Emergence at 62.5 g/ha): 0; damage to plant (100=total damage; 0=no damage) ZEAMX (corn (Zea mays, ZEAMX) [8]; Post-Emergence at 250 g/ha): 10; damage to plant (100=total damage; 0=no damage) AMARE ([9]; Post-Emergence at 15.625 g/ha): 30; damage to plant (100=total damage; 0=no damage) AMARE ([9]; Post-Emergence at 62.5 g/ha): 40; damage to plant (100=total damage; 0=no damage) AMARE ([9]; Post-Emergence at 250 g/ha): 30; damage to plant (100=total damage; 0=no damage) ABUTH ([10]; Post-Emergence at 15.625 g/ha): 0; damage to plant (100=total damage; 0=no damage) ABUTH ([10]; Post-Emergence at 62.5 g/ha): 0; damage to plant (100=total damage; 0=no damage) ABUTH ([10]; Post-Emergence at 250 g/ha): 0; damage to plant (100=total damage; 0=no damage) ECHCG ([11]; Post-Emergence at 15.625 g/ha): 20; damage to plant (100=total damage; 0=no damage) ECHCG ([11]; Post-Emergence at 62.5 g/ha): 50; damage to plant (100=total damage; 0=no damage) ECHCG ([11]; Post-Emergence at 250 g/ha): 70; damage to plant (100=total damage; 0=no damage) ZEAMX (corn (Zea mays, ZEAMX) [12]; Pre-Emergence at 15.625 g/ha): 0; damage to plant (100=total damage; 0=no damage) ZEAMX (corn (Zea mays, ZEAMX) [12]; Pre-Emergence at 62.5 g/ha): 10; damage to plant (100=total damage; 0=no damage) ZEAMX (corn (Zea mays, ZEAMX) [12]; Pre-Emergence at 250 g/ha): 10
CN1CC(c2nn(C)c(Cl)c2Br)C(C(=O)Nc2cccc(F)c2F)C1=O (racemic) [Compound 28] | 20 | 80 | 90 | 0 | 0 | 0 | 0 | 0 | 0 | 30 | 70 | 90 | 0 | 0 | 0 | 10 | 30 | 70 | 0 | 0 | damage to plant (100=total damage; 0=no damage) IPOHE ([7]; Pre-Emergence at 250 g/ha): 0; damage to plant (100=total damage; 0=no damage) ZEAMX (corn (Zea mays, ZEAMX) [8]; Post-Emergence at 15.625 g/ha): 0; damage to plant (100=total damage; 0=no damage) ZEAMX (corn (Zea mays, ZEAMX) [8]; Post-Emergence at 62.5 g/ha): 0; damage to plant (100=total damage; 0=no damage) ZEAMX (corn (Zea mays, ZEAMX) [8]; Post-Emergence at 250 g/ha): 0; damage to plant (100=total damage; 0=no damage) AMARE ([9]; Post-Emergence at 15.625 g/ha): 30; damage to plant (100=total damage; 0=no damage) AMARE ([9]; Post-Emergence at 62.5 g/ha): 40; damage to plant (100=total damage; 0=no damage) AMARE ([9]; Post-Emergence at 250 g/ha): 50; damage to plant (100=total damage; 0=no damage) ABUTH ([10]; Post-Emergence at 15.625 g/ha): 0; damage to plant (100=total damage; 0=no damage) ABUTH ([10]; Post-Emergence at 62.5 g/ha): 0; damage to plant (100=total damage; 0=no damage) ABUTH ([10]; Post-Emergence at 250 g/ha): 0; damage to plant (100=total damage; 0=no damage) ECHCG ([11]; Post-Emergence at 15.625 g/ha): 30; damage to plant (100=total damage; 0=no damage) ECHCG ([11]; Post-Emergence at 62.5 g/ha): 50; damage to plant (100=total damage; 0=no damage) ECHCG ([11]; Post-Emergence at 250 g/ha): 70; damage to plant (100=total damage; 0=no damage) ZEAMX (corn (Zea mays, ZEAMX) [12]; Pre-Emergence at 15.625 g/ha): 0; damage to plant (100=total damage; 0=no damage) ZEAMX (corn (Zea mays, ZEAMX) [12]; Pre-Emergence at 62.5 g/ha): 0; damage to plant (100=total damage; 0=no damage) ZEAMX (corn (Zea mays, ZEAMX) [12]; Pre-Emergence at 250 g/ha): 0
